In the NIST ThermoML archive (doi:10.1021/acs.jced.6b00812):

Assay: molar heat capacity at constant pressure; mn = molality of the nth substance listed, in mol/kg
Conditions: 100 kPa, Liquid, Small sample (50 mg) DSC

[Ca+2].[Cl-].[Cl-] [calcium chloride] + O
molar heat capacity at constant pressure [J/K/mol]
Conditions	m1 = 0.49	m1 = 1.17	m1 = 1.83	m1 = 2.51	m1 = 3.14	m1 = 3.8	m1 = 4.41	m1 = 5.1	m1 = 5.76	m1 = 6.39
168.15 K	–	–	–	–	–	56.81	58.42	–	–	–
178.15 K	–	–	–	–	–	57.77	59.16	–	–	–
188.15 K	–	–	–	–	–	58.49	59.66	–	–	–
198.15 K	–	–	–	–	–	59.45	60.4	–	–	–
208.15 K	–	–	–	–	–	60.41	61.15	–	–	–
218.15 K	–	–	–	–	–	61.37	61.9	–	–	–
228.15 K	–	–	–	–	62.08	62.09	62.64	–	–	–
238.15 K	–	–	–	63.47	63	63.05	63.39	64.08	–	–
248.15 K	–	68.18	65.68	64.35	63.92	63.77	64.13	64.6	–	–
258.15 K	72.68	68.77	66.51	65.23	64.61	64.48	64.63	65.37	66.09	–
268.15 K	72.49	69.37	67.14	65.89	65.3	65.2	65.38	65.89	66.62	–
278.15 K	72.68	69.77	67.77	66.55	65.76	65.68	65.87	66.66	67.42	67.93
288.15 K	72.68	69.97	68.19	66.99	66.22	66.16	66.37	67.18	67.96	68.2
298.15 K	72.87	70.37	68.61	67.43	66.91	66.64	67.12	67.7	68.49	68.76

[Cl-].[Cl-].[Mg+2] [magnesium chloride] + O
molar heat capacity at constant pressure [J/K/mol]
Conditions	m1 = 0.58	m1 = 1.12	m1 = 1.67	m1 = 2.19	m1 = 2.74	m1 = 3.36	m1 = 3.88	m1 = 4.46	m1 = 5.04	m1 = 5.63
168.15 K	–	–	–	–	–	49.33	49.35	–	–	–
178.15 K	–	–	–	–	–	51.34	51.42	51.55	–	–
188.15 K	–	–	–	–	–	53.36	53.27	53.21	–	–
198.15 K	–	–	–	–	–	55.38	55.11	54.88	–	–
208.15 K	–	–	–	–	–	57.17	56.72	56.54	–	–
218.15 K	–	–	–	–	–	58.74	58.34	57.97	57.68	57.28
228.15 K	–	–	–	62	61.04	60.09	59.49	59.15	58.66	58.54
238.15 K	–	–	65.07	63.46	62.34	61.43	60.87	60.34	59.88	59.54
248.15 K	–	68.59	65.88	64.3	63.42	62.33	61.8	61.29	60.61	60.55
258.15 K	72.24	68.98	66.69	65.35	64.29	63.23	62.49	62	61.59	61.3
268.15 K	72.24	69.57	67.5	66.19	65.16	64.12	63.41	62.72	62.08	62.06
278.15 K	72.24	69.96	67.9	66.61	65.59	64.57	63.87	63.19	62.81	62.56
288.15 K	72.43	70.16	68.31	67.23	66.02	65.02	64.33	63.67	63.3	63.06
298.15 K	72.43	70.55	68.71	67.44	66.45	65.47	64.79	64.14	63.55	63.56

[Cl-].[K+] [potassium chloride] + O
molar heat capacity at constant pressure [J/K/mol]
Conditions	m1 = 0.53	m1 = 0.97	m1 = 1.41	m1 = 1.86	m1 = 2.34	m1 = 2.79	m1 = 3.25	m1 = 3.72	m1 = 4.15	m1 = 4.62
238.15 K	–	–	–	–	–	–	–	–	65.84	–
248.15 K	–	–	–	70.06	–	68.17	67.44	66.86	66.5	–
258.15 K	74.76	72.91	71.45	70.26	69.43	68.59	68.08	67.29	66.94	–
268.15 K	74.2	72.72	71.45	70.46	69.64	68.79	68.29	67.72	67.16	66.63
278.15 K	73.83	72.72	71.64	70.66	69.84	69	68.5	67.93	67.38	66.85
288.15 K	73.83	72.72	71.64	70.66	69.84	69.21	68.71	67.93	67.6	67.08
298.15 K	73.83	72.72	71.64	70.86	70.04	69.42	68.71	68.15	67.6	67.08
